Assay results as given in PubChem BioAssay (NCI).
“And” between values parts separate entries of the source, which are not always exact repeats. Equal values may be shown once.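 Exposure lasted 48 hours, with cells grown in 96-well plates and compounds tested at five concentrations. TGI is the concentration that stops growth completely.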

Experiments:
Test in all cases: NCI tumour cell line growth inhibition, 48 h
NCI-H522 lung = test system: NCI-H522 lung
SK-MEL-2 melanoma = test system: SK-MEL-2 melanoma
SK-MEL-28 melanoma = test system: SK-MEL-28 melanoma
SK-MEL-5 melanoma = test system: SK-MEL-5 melanoma
TK-10 renal = test system: TK-10 renal
UACC-62 melanoma = test system: UACC-62 melanoma
LOX IMVI melanoma = test system: LOX IMVI melanoma
SR leukemia = test system: SR leukemia
SW-620 colon = test system: SW-620 colon
MDA-N = test system: MDA-N

CC(C)(CN1CCCCC1)C(=O)CC(SCCS(=O)(=O)O)c1ccc(Br)cc1 (configuration not stated)
TGI (NCI-H522 lung): 2.9 µM | TGI (SK-MEL-2 melanoma): 4.37 µM | TGI (SK-MEL-28 melanoma): 8.7 µM | TGI (SK-MEL-5 melanoma): 3.32 µM | TGI (TK-10 renal): 7.97 µM | TGI (UACC-62 melanoma): 3.69 µM

NC1=NS(=O)(=O)N=C(N)C1=Cc1ccc([N+](=O)[O-])o1
TGI (LOX IMVI melanoma): 33.2 µM | TGI (NCI-H522 lung): 31.5 µM | TGI (SK-MEL-2 melanoma): 30.9 µM | TGI (SK-MEL-28 melanoma): 29.5 µM | TGI (SK-MEL-5 melanoma): 28.6 µM | TGI (SR leukemia): 29.2 µM | TGI (SW-620 colon): 32.7 µM | TGI (TK-10 renal): 32.6 µM | TGI (UACC-62 melanoma): 30.2 µM

O=C1/C(=C/c2cccc(Oc3ccccc3)c2)N=C(c2ccccc2)N1c1nc2ccc(Sc3ccccc3)cc2[nH]1
TGI (LOX IMVI melanoma): > 100 µM | TGI (MDA-N): 35.8 µM | TGI (NCI-H522 lung): 65.8 µM | TGI (SK-MEL-2 melanoma): 38.4 µM | TGI (SK-MEL-28 melanoma): > 100 µM | TGI (SK-MEL-5 melanoma): 75.3 µM | TGI (SW-620 colon): > 100 µM | TGI (TK-10 renal): 68.4 µM | TGI (UACC-62 melanoma): 74.9 µM

O=C1c2cc([N+](=O)[O-])ccc2NC2C(O)c3ccccc3N12 (configuration not stated)
TGI (LOX IMVI melanoma): > 100 µM | TGI (MDA-N): > 100 µM | TGI (NCI-H522 lung): 38.7 µM | TGI (SK-MEL-2 melanoma): > 100 µM | TGI (SK-MEL-5 melanoma): > 100 µM | TGI (SR leukemia): 56.2 µM | TGI (TK-10 renal): 58.1 µM | TGI (UACC-62 melanoma): 47.9 µM

O=c1[nH]c(=O)n(C2CC(O)C(CO)O2)cc1C#Cc1ccc(C(F)(F)F)cc1 (configuration not stated)
TGI (LOX IMVI melanoma): > 100 µM | TGI (NCI-H522 lung): > 100 µM | TGI (SK-MEL-2 melanoma): > 100 µM | TGI (SK-MEL-28 melanoma): > 100 µM | TGI (SK-MEL-5 melanoma): > 100 µM | TGI (SR leukemia): > 100 µM | TGI (SW-620 colon): > 100 µM | TGI (TK-10 renal): > 100 µM | TGI (UACC-62 melanoma): > 100 µM

C#CC(C)(C)Oc1cc(OC)c2c(=O)c3ccccc3n(C)c2c1
TGI (MDA-N): 31.1 µM | TGI (SK-MEL-2 melanoma): 35.7 µM | TGI (SK-MEL-28 melanoma): 42.6 µM | TGI (SK-MEL-5 melanoma): 23.4 µM | TGI (SR leukemia): 14.9 µM | TGI (SW-620 colon): > 100 µM | TGI (TK-10 renal): > 100 µM | TGI (UACC-62 melanoma): 32 µM

O=C(Cn1c2ccc(Br)cc2c2nc3ccccc3nc21)NC1CCCCC1
TGI (LOX IMVI melanoma): > 100 µM | TGI (MDA-N): > 100 µM | TGI (NCI-H522 lung): > 100 µM | TGI (SK-MEL-2 melanoma): > 100 µM | TGI (SK-MEL-28 melanoma): > 100 µM | TGI (SK-MEL-5 melanoma): > 100 µM | TGI (SW-620 colon): > 100 µM | TGI (TK-10 renal): > 100 µM | TGI (UACC-62 melanoma): > 100 µM

C=C(CCOC)CCC1CCCCC(=C)C1=O (configuration not stated)
TGI (LOX IMVI melanoma): > 100 µM | TGI (MDA-N): > 100 µM | TGI (NCI-H522 lung): > 100 µM | TGI (SK-MEL-2 melanoma): > 100 µM | TGI (SK-MEL-28 melanoma): > 100 µM | TGI (SK-MEL-5 melanoma): > 100 µM | TGI (SR leukemia): > 100 µM | TGI (SW-620 colon): > 100 µM | TGI (UACC-62 melanoma): > 100 µM

O=C1CCC2(CCC(=O)NC2=O)C(=O)N1
TGI (LOX IMVI melanoma): > 100 µM | TGI (NCI-H522 lung): > 100 µM | TGI (SK-MEL-28 melanoma): > 100 µM | TGI (SK-MEL-5 melanoma): > 100 µM | TGI (SR leukemia): > 100 µM | TGI (SW-620 colon): > 100 µM | TGI (TK-10 renal): > 100 µM

CC1(C)CC(=O)C(/C=N/c2nc(-c3ccc(Br)cc3)cs2)=C(O)C1
TGI (LOX IMVI melanoma): 52.4 µM | TGI (MDA-N): > 100 µM | TGI (SK-MEL-2 melanoma): 48.4 µM | TGI (SK-MEL-28 melanoma): > 100 µM | TGI (SK-MEL-5 melanoma): > 100 µM | TGI (SW-620 colon): > 100 µM | TGI (TK-10 renal): 40.2 µM

O=C1c2ccccc2NC2C(O)c3ccccc3N12 (configuration not stated)
TGI (LOX IMVI melanoma): > 100 µM | TGI (NCI-H522 lung): > 100 µM | TGI (SK-MEL-2 melanoma): > 100 µM | TGI (SK-MEL-5 melanoma): > 100 µM | TGI (SR leukemia): > 100 µM | TGI (SW-620 colon): > 100 µM | TGI (TK-10 renal): > 100 µM | TGI (UACC-62 melanoma): 56.8 µM

C=CCc1c(O)c2ccccc2[nH]c1=O
TGI (LOX IMVI melanoma): > 100 µM | TGI (MDA-N): > 100 µM | TGI (NCI-H522 lung): > 100 µM | TGI (SK-MEL-28 melanoma): > 100 µM | TGI (SK-MEL-5 melanoma): > 100 µM | TGI (SR leukemia): > 100 µM | TGI (SW-620 colon): > 100 µM | TGI (TK-10 renal): > 100 µM

CN(C)c1ccc(/C=C(\NC(=O)c2ccccc2)C(=O)Nc2ccccc2C(=O)NN2C(=O)CSC2c2ccc(N(C)C)cc2)cc1 (configuration not stated)
TGI (LOX IMVI melanoma): > 100 µM | TGI (MDA-N): > 100 µM | TGI (NCI-H522 lung): > 100 µM | TGI (SK-MEL-2 melanoma): > 100 µM | TGI (SK-MEL-28 melanoma): > 100 µM | TGI (SK-MEL-5 melanoma): > 100 µM | TGI (SR leukemia): > 100 µM | TGI (SW-620 colon): > 100 µM | TGI (UACC-62 melanoma): > 100 µM

Cc1cnc(Cl)nc1C(C#N)c1nc2ccccc2n1C (configuration not stated)
TGI (LOX IMVI melanoma): > 100 µM | TGI (MDA-N): > 100 µM | TGI (NCI-H522 lung): 43.4 µM | TGI (SK-MEL-28 melanoma): > 100 µM | TGI (SK-MEL-5 melanoma): > 100 µM | TGI (SW-620 colon): > 100 µM | TGI (TK-10 renal): > 100 µM

N#Cc1c(N)c(-c2ccc(Cl)cc2)c(F)c2ccccc12
TGI (LOX IMVI melanoma): > 100 µM | TGI (MDA-N): > 100 µM | TGI (NCI-H522 lung): > 100 µM | TGI (SK-MEL-2 melanoma): > 100 µM | TGI (SK-MEL-28 melanoma): > 100 µM | TGI (SK-MEL-5 melanoma): > 100 µM | TGI (SW-620 colon): > 100 µM | TGI (TK-10 renal): > 100 µM | TGI (UACC-62 melanoma): > 100 µM

c1ccc(C2=NN3CN(N2)c2ccccc2OCCCOc2ccccc23)cc1
TGI (LOX IMVI melanoma): > 100 µM | TGI (NCI-H522 lung): > 100 µM | TGI (SK-MEL-2 melanoma): > 100 µM | TGI (SK-MEL-28 melanoma): > 100 µM | TGI (SK-MEL-5 melanoma): > 100 µM | TGI (SR leukemia): > 100 µM | TGI (SW-620 colon): > 100 µM | TGI (TK-10 renal): > 100 µM | TGI (UACC-62 melanoma): > 100 µM

CC(=O)Oc1ccc2cc(Oc3ccc(Cl)cc3)c(=O)oc2c1
TGI (LOX IMVI melanoma): > 100 µM | TGI (MDA-N): 78.8 µM | TGI (NCI-H522 lung): 89.6 µM | TGI (SK-MEL-28 melanoma): > 100 µM | TGI (SK-MEL-5 melanoma): 41.9 µM | TGI (SR leukemia): > 100 µM | TGI (SW-620 colon): > 100 µM | TGI (TK-10 renal): > 100 µM

CCCCn1cc(C(=O)O)c(=O)c2c3sccc3ccc21
TGI (LOX IMVI melanoma): > 100 µM | TGI (MDA-N): > 100 µM | TGI (NCI-H522 lung): > 100 µM | TGI (SK-MEL-2 melanoma): > 100 µM | TGI (SK-MEL-28 melanoma): > 100 µM | TGI (SK-MEL-5 melanoma): > 100 µM | TGI (SW-620 colon): > 100 µM | TGI (TK-10 renal): > 100 µM | TGI (UACC-62 melanoma): > 100 µM

CCCCCCCCCCCCOC1C(COCCN2CCCC2)OC2OC(C)(C)OC21 (configuration not stated)
TGI (LOX IMVI melanoma): 2.77 µM | TGI (MDA-N): 2.76 µM | TGI (NCI-H522 lung): 2.53 µM | TGI (SK-MEL-2 melanoma): 3.09 µM | TGI (SK-MEL-28 melanoma): 3.12 µM | TGI (SK-MEL-5 melanoma): 2.95 µM | TGI (SR leukemia): 2.91 µM | TGI (TK-10 renal): 3.03 µM | TGI (UACC-62 melanoma): 3.36 µM

Cc1nc2c(n1Cc1ccc(Cl)cc1)C(=O)c1ccccc1C2=O
TGI (LOX IMVI melanoma): > 75 µM | TGI (NCI-H522 lung): > 75 µM | TGI (SK-MEL-2 melanoma): > 75 µM | TGI (SK-MEL-28 melanoma): > 75 µM | TGI (SK-MEL-5 melanoma): > 75 µM | TGI (SR leukemia): > 75 µM | TGI (TK-10 renal): > 75 µM | TGI (UACC-62 melanoma): > 75 µM

Cc1cc(S(=O)(=O)Nc2n[nH]c(Nc3ccccc3)n2)c(S)cc1Cl
TGI (LOX IMVI melanoma): > 10 µM | TGI (NCI-H522 lung): > 10 µM | TGI (SK-MEL-2 melanoma): > 10 µM | TGI (SK-MEL-28 melanoma): > 10 µM | TGI (SK-MEL-5 melanoma): > 10 µM | TGI (SW-620 colon): > 10 µM | TGI (TK-10 renal): > 10 µM | TGI (UACC-62 melanoma): > 10 µM

Brc1ccc(N2C[N+](c3ccc(Br)cc3)=NC(c3ccccc3)=N2)cc1
TGI (NCI-H522 lung): 36.4 µM and > 100 µM | TGI (SK-MEL-2 melanoma): 32.6 µM and > 100 µM | TGI (SK-MEL-28 melanoma): 39.2 µM and > 100 µM | TGI (SK-MEL-5 melanoma): 29.4 µM and > 100 µM | TGI (SW-620 colon): 40.9 µM and > 100 µM | TGI (TK-10 renal): 38 µM and > 100 µM | TGI (UACC-62 melanoma): 28.2 µM and > 100 µM

C/C(=N\N(C)C)C(CN(C)C)C(c1ccccc1)c1c(O)c2ccccc2oc1=O (configuration not stated)
TGI (LOX IMVI melanoma): > 100 µM | TGI (NCI-H522 lung): > 100 µM | TGI (SK-MEL-2 melanoma): > 100 µM | TGI (SK-MEL-28 melanoma): > 100 µM | TGI (SK-MEL-5 melanoma): > 100 µM | TGI (SW-620 colon): > 100 µM | TGI (TK-10 renal): > 100 µM | TGI (UACC-62 melanoma): > 100 µM

O=C1c2cc3c(cc2CC12Cc1cc4c(cc1C2)CCC4)CCC3
TGI (LOX IMVI melanoma): > 100 µM | TGI (MDA-N): > 100 µM | TGI (NCI-H522 lung): > 100 µM | TGI (SK-MEL-2 melanoma): > 100 µM | TGI (SK-MEL-28 melanoma): > 100 µM | TGI (SK-MEL-5 melanoma): > 100 µM | TGI (SR leukemia): > 100 µM | TGI (SW-620 colon): > 100 µM | TGI (TK-10 renal): > 100 µM
